Measured values: US7176224B2, “Oxazolyl-aryloxyacetic acid derivatives and their use as PPAR agonists” (Eli Lilly and Company, priority 2000, dated 2007)
pIC50: −log10 of the molar value.

Key:
huPPARγ [1] = biological target: T1, huPPARγ (Homo sapiens, UniProt P37231); experiment: DNA-dependent binding (ABCD binding), SPA, radioligand displacement; details: tritium-labeled PPARγ agonist radioligand
T1 sequence (P37231 1-505): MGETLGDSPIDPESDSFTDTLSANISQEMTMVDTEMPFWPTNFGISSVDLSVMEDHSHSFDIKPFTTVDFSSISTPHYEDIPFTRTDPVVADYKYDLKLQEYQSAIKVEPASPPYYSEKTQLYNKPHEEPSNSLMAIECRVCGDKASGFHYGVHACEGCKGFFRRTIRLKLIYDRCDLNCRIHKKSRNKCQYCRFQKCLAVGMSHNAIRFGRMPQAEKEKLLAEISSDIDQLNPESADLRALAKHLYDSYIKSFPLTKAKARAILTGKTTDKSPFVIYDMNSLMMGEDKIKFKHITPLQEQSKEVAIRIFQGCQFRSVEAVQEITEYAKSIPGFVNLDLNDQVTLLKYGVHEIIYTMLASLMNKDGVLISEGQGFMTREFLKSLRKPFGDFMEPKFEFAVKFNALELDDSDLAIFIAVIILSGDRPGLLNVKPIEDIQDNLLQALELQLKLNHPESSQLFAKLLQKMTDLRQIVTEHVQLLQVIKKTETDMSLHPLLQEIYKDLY
T1 sequence (P19793 1-462 partner): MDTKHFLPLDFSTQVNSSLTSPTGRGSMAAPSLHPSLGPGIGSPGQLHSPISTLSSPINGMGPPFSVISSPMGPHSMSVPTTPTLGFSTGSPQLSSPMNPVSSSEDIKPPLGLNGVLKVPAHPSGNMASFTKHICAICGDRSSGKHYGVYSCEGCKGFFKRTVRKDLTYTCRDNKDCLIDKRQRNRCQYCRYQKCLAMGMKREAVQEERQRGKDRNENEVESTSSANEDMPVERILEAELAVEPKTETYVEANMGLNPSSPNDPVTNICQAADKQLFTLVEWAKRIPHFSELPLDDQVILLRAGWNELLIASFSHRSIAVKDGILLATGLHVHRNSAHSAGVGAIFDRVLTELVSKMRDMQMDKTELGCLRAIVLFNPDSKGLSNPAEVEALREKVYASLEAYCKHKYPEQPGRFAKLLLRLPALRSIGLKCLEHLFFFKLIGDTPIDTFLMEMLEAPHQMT
Procedure: (§1) […] binding (ABCD binding) was carried out using SPA technology with PPAR receptors. Tritium-labeled PPARα and PPARγ agonists were used as radioligands for generating displacement curves and IC50 values with compounds of the invention. Cotransfection assays were carried out in CV-1 cells. The reporter plasmid contained an acylCoA oxidase (AOX) PPRE and TK promoter upstream of the luciferase reporter cDNA. Appropriate PPARs and RXRα were constitutively expressed using plasmids containing the CMV promoter. […] In order to eliminate such interference, a GAL4 chimeric system was used in which the DNA binding domain of the transfected PPAR was replaced by that of GAL4, and the GAL4 response element was utilized in place of the AOX PPRE. Cotransfection efficacy was determined relative to PPARα agonist and PPARβ agonist reference molecules. Efficacies were determined by computer fit to a concentration-response curve, or in some cases at a single high concentration of agonist (10 μM). For binding or cotransfection studies with receptors other than PPARs, similar assays were carried out using appropriate ligands, receptors, reporter constructs, etc., for that particular receptor.
(§2) These studies were carried out to evaluate the ability of compounds of the invention to bind to and/or activate various nuclear transcription factors, particularly huPPARα (“hu” indicates “human”) and huPPARγ. These studies provide in vitro data concerning efficacy and selectivity of compounds of the invention. Furthermore, binding and cotransfection data for compounds of the invention were compared with corresponding data for marketed compounds that act on either huPPARα or huPPARγ.

huPPARα [2] = biological target: T2, huPPARα (Homo sapiens, UniProt Q07869); experiment: as above; details: tritium-labeled PPARα agonist radioligand
T2 sequence (Q07869 1-468): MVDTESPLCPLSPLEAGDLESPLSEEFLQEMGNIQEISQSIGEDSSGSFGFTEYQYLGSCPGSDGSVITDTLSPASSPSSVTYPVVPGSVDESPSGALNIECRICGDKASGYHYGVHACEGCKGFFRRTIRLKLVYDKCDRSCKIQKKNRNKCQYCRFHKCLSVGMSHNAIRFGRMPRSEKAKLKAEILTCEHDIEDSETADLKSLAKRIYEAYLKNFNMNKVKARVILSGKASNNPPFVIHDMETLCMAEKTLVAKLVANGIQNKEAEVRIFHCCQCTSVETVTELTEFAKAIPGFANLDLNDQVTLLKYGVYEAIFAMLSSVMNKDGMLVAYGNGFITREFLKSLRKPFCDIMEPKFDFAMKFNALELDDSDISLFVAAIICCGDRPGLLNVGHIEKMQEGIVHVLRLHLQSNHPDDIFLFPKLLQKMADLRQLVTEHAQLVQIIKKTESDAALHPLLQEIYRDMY
T2 sequence (P19793 1-462 partner): T1 sequence (P19793 1-462 partner)
Procedure: as §1, §2

huPPARα [3] = experiment: Cotransfection assay in CV-1 cells, luciferase reporter; assay type: cell-based, human; details: GAL4 chimeric system, relative to PPARα agonist reference molecule
Procedure: […] binding (ABCD binding) was carried out using SPA technology with PPAR receptors. Tritium-labeled PPARα and PPARγ agonists were used as radioligands for generating displacement curves and IC50 values with compounds of the invention. Cotransfection assays were carried out in CV-1 cells. The reporter plasmid contained an acylCoA oxidase (AOX) PPRE and TK promoter upstream of the luciferase reporter cDNA. Appropriate PPARs and RXRα were constitutively expressed using plasmids containing the CMV promoter. For PPARα and […], interference by endogenous […] in CV-1 cells was an issue. In order to eliminate such interference, a GAL4 chimeric system was used in which the DNA binding domain of the transfected PPAR was replaced by that of GAL4, and the GAL4 response element was utilized in place of the AOX PPRE. Cotransfection efficacy was determined relative to PPARα agonist and […] reference molecules. Efficacies were determined by computer fit to a concentration-response curve, or in some cases at a single high concentration of agonist (10 μM). For binding or cotransfection studies with receptors other than PPARs, similar assays were carried out using appropriate ligands, receptors, reporter constructs, etc., for that particular receptor.
as §2

huPPARγ [4] = experiment: as above; assay type: cell-based, human; details: GAL4 chimeric system, relative to agonist reference molecule
Procedure: as §1, with “Tritium-labeled PPARα and PPARγ agonists were used as radioligands for generating displacement curves and IC50 values with compounds of the invention.” left out, “Cotransfection efficacy was determined relative to PPARα agonist and PPARβ agonist reference molecules.” left out
as §2

| pIC50 (huPPARγ [1]) | pIC50 (huPPARα [2]) | Structure (SMILES) | huPPARα CTF Efficacy (huPPARα [3]) [%] | huPPARγ CTF Efficacy (huPPARγ [4]) [%] |
| --- | --- | --- | --- | --- |
| 6.76 | 5.38 | COc1cc(CC(C)(Oc2ccccc2)C(=O)O)ccc1OCCc1nc(-c2ccc(-c3ccccc3)cc2)oc1C (stereo not drawn) [Example 7, 3-{4-[2-(2-Biphenyl-4-yl-5-methyloxazol-4-yl)ethoxy]-3-methoxyphenyl}-2-methyl-2-phenoxypropionic acid] | 60 | 93 |
| 7.39 | 6.22 | COc1cc(CC(C)(Oc2ccccc2)C(=O)O)ccc1OCCc1nc(-c2cccc(-c3ccccc3)c2)oc1C (stereo not drawn) [Example 8, 3-{4-[2-(2-Biphenyl-3-yl-5-methyloxazol-4-yl)ethoxy]-3-methoxyphenyl}-2-methyl-2-phenoxypropionic acid] | 45 | 91 |
| 6.97 | 6.71 | Cc1oc(-c2ccc(-c3ccccc3)cc2)nc1CCOc1ccc(CC(C)(Oc2ccc(C(C)(C)C)cc2)C(=O)O)cc1 (stereo not drawn) [Example 15, 3-{4-[2-(2-Biphenyl-4-yl-5-methyl-oxazol-4-yl)-ethoxy]-phenyl}-2-methyl-2-(4-tert-butylphenoxy)-propionic acid] | 96 | 90 |
| 6.92 | 6.73 | Cc1oc(-c2ccc(-c3cccs3)cc2)nc1CCOc1ccc(CC(C)(Oc2ccc(C(C)(C)C)cc2)C(=O)O)cc1 (stereo not drawn) [Example 17, 2-Methyl-3-(4-{2-[5-methyl-2-(4-thiophen-2-yl-phenyl)-oxazol-4-yl]-ethoxy}-phenyl)-2-(4-tert-butylphenoxy)-propionic acid] | 116 | 80 |
| 7.11 | 6.59 | Cc1oc(-c2ccc(-c3cccs3)cc2)nc1CCOc1ccc(CC(C)(Oc2cccc(F)c2)C(=O)O)cc1 (stereo not drawn) [Example 22, 2-(3-Fluoro-phenoxy)-2-methyl-3-(4-{2-[5-methyl-2-(4-thiophen-2-yl-phenyl)-oxazol-4-yl]-ethoxy}-phenyl)-propionic acid] | 63 | 100 |
| 7.26 | 6.80 | Cc1oc(-c2cccc(-c3cccs3)c2)nc1CCOc1ccc(CC(C)(Oc2ccc(Cl)cc2)C(=O)O)cc1 (stereo not drawn) [Example 26, 2-(4-Chlorophenoxy)-2-methyl-3-(4-{2-[5-methyl-2-(3-thiophen-2-yl-phenyl)-oxazol-4-yl]-ethoxy}-phenyl)-propionic acid] | 54 | 100 |
| 7.40 | 6.78 | Cc1ccc(OC(C)(Cc2ccc(OCCc3nc(-c4ccc(-c5ccccc5)cc4)oc3C)cc2)C(=O)O)cc1C (stereo not drawn) [Example 34, 3-{4-[2-(2-Biphenyl-4-yl-5-methyl-oxazol-4-yl)-ethoxy]-phenyl}-2-(3,4-dimethyl-phenoxy)-2-methyl-propionic acid] | 61 | 95 |
| 7.35 | 6.40 | CCC(Cc1ccc(OCCc2nc(-c3cccc(-c4ccccc4)c3)oc2C)cc1)(Oc1ccccc1)C(=O)O (stereo not drawn) [Example 41, 2-{4-[2-(2-Biphenyl-3-yl-5-methyl-oxazol-4-yl)-ethoxy]-benzyl}-2-phenoxy-butyric acid] | 44 | 108 |
| 7.25 | 6.51 | CCC(Cc1ccc(OCCc2nc(-c3cccc(-c4cccs4)c3)oc2C)cc1)(Oc1ccccc1)C(=O)O (stereo not drawn) [Example 42, 2-(4-{2-[5-Methyl-2-(3-thiophen-2-yl-phenyl)-oxazol-4-yl]-ethoxy}-benzyl)-2-phenoxy-butyric acid] | 49 | 105 |
| 7.27 | 6.74 | Cc1cccc(OC(C)(Cc2ccc(OCCc3nc(-c4cccc(-c5ccccc5)c4)oc3C)cc2)C(=O)O)c1 (stereo not drawn) [Example 48, 3-{4-[2-(2-Biphenyl-3-yl-5-methyl-oxazol-4-yl)-ethoxy]-phenyl}-2-methyl-2-m-tolyloxy-propionic acid] | 45 | 145 |
| 7.25 | 6.69 | Cc1oc(-c2cccc(-c3ccccc3)c2)nc1CCOc1ccc(CC(C)(Oc2ccc(F)cc2)C(=O)O)cc1 (stereo not drawn) [Example 51, 3-{4-[2-(2-Biphenyl-3-yl-5-methyl-oxazol-4-yl)-ethoxy]-phenyl}-2-(4-fluoro-phenoxy)-2-methyl-propionic acid] | 43 | 160 |
| 7.00 | 6.21 | COc1cccc(OC(C)(Cc2ccc(OCCc3nc(-c4ccc(-c5ccccc5)cc4)oc3C)cc2)C(=O)O)c1 (stereo not drawn) [Example 56, 3-{4-[2-(2-Biphenyl-4-yl-5-methyl-oxazol-4-yl)-ethoxy]-phenyl}-2-(3-methoxy-phenoxy)-2-methyl-propionic acid] | 70 | 88 |
| – | – | CC(C)(Oc1ccc(C(=O)c2ccc(Cl)cc2)cc1)C(=O)O [Fenofibric acid, reference compound] | 16 | 0 |
| – | – | Cc1c(C)c2c(c(C)c1O)CCC(C)(COc1ccc(CC3SC(=O)NC3=O)cc1)O2 (stereo not drawn) [Troglitazone, reference compound] | 0 | – |
